Experiments:
[1] = system: CHCM1/CHCHD6 protein levels; assay: Western blot of CHCM1/CHCHD6 protein levels after drug treatment; format: cell-based, human
Method: (§1) Western blotting and immunoprecipitations were done by standard procedures as previously described (25, 26). S-tag pull down experiments were performed using human cancer cells as well as bacterial lysates. Cell pellets were prepared and lysed in lysis buffer (50 mM Tris-HCl, pH 7.4, 120 mM NaCl, 0.1% NP-40, 10 mM NaF, 5 mM EDTA, 2 mM Na3VO4, 2 mM MgCl2, 10 mM KCl, 25 mM glycerophosphate, protease inhibitor cocktail, okadic acid and 1 mM PMSF) and S-tag pull down was performed by using S-protein agarose beads (Novagen, EMD Chemicals Group, Darmstadt, Germany) according to manufacturer's protocol. For S-tag pull down using bacterial lysates, wild type and deletion variants of S-tagged CHCM1/CHCHD6 were expressed in E. coli BL21 (DE3) and induced by 1 mM IPTG (isopropyl-1-thio-β-D-galactopyranoside) at 30° C. for 6 hr. Bacteria were lysed in a buffer containing 28 mM Tris, 135 mM NaCl, 1 mM dithiothreitol (DTT), 1% Triton-X 100 (w/v), protease inhibitor cocktail and 400 μg/ml […] for 30 min at room temperature, followed by 26,000×g centrifugation for 30 min (Sorvall RC5C Plus) and S-tag pull down was done according to manufacturer's protocol. GST-tagged Mitofilin was expressed in bacteria and gel-purified as previously described (27).

[2] = system: CHCM1/CHCHD6 mRNA; assay: Lentiviral shRNA knockdown of endogenous CHCM1/CHCHD6 (Northern and Western blot); format: cell-based; settings: RKO human colon and MCF-7 breast cancer cells; M.O.I. 1.0 (FIG. 5A)
Method: (§2) Northern blot analyses were done according to standard procedure (23, 24). Briefly, total RNA was extracted by Trizol reagent (Invitrogen, Carlsbad, Calif.) and ˜15 μg of total RNA were size-separated on 1.2% agarose gel and transferred to nylon membrane (Whatman, GE Health care, Piscataway, N.J.). Human CHCM1/CHCHD6 cDNA probe was labeled with ^32P and hybridization was performed in QuikHyb solution (Stratagene, La Jolla, Calif.) at 65° C.
as §1
Endogenous CHCM1/CHCHD6 and Mitofilin were knocked-down by lentiviral shRNA-mediated approach (28). The pLKO.1 lentiviral vectors containing the scrambled or CHCM1/CHCHD6-specific shRNAs or Mitofilin-specific shRNAs were generated by The RNA interference Consortium and purchased from Open Biosystems (Huntsville, Ala.). Lentiviruses were produced and titered according to the supplier's protocols. In all experiments, the multiplicity of infection (M.O.I.) was 1.0. Five shRNAs to target five different regions of CHCM1/CHCHD6 were used. Artificial DNA sequences coding for shRNAs are as follows. The first part of the sequence is in sense orientation then loop (underlined) followed by antisense sequence: […]

[3] = system: RKO, MCF7 and MDA231 cell lines; assay: MTT assay, cell growth in CHCM1/CHCHD6 knockdown cells; format: cell-based, human; settings: knockdown vs scramble, MCF7, MDA231 (FIG. 5B)
Source text: (§3) Endogenous CHCM1/CHCHD6 and Mitofilin were knocked-down by lentiviral shRNA-mediated approach (28). The pLKO.1 lentiviral vectors containing the scrambled or CHCM1/CHCHD6-specific shRNAs or Mitofilin-specific shRNAs were generated by The RNA interference Consortium and purchased from Open Biosystems (Huntsville, Ala.). Lentiviruses were produced and titered according to the supplier's protocols. In all experiments, the multiplicity of infection (M.O.I.) was 1.0. Five shRNAs to target five different regions of CHCM1/CHCHD6 were used. Artificial DNA sequences coding for shRNAs are as follows. The first part of the sequence is in sense orientation then loop (underlined) followed by antisense sequence:
(§4) MTT powder (MTT, Methylthiazolyldiphenyl-tetrazolium bromide, available from Sigma-Aldrich, St. Louis, Mo., Cat. No. M2128) was dissolved in DMEM without fetal bovine serum and phenol red to a final concentration of 1 mg/ml and then added to cells and incubated for ˜1-4 hrs depending on cell confluency. Medium was then removed and equal volume of isopropanol with 0.04N HCl was added to dissolve the precipitate. Finally, absorbance was read at 570 nm wavelength subtracting background reading at 650 nm wavelength with a Bio-Rad Smart-Spec 3100 instrument.

[4] = system: MCF7 cells; assay: Transmission electron microscopy of mitochondrial cristae, MCF7; format: cell-based, human; settings: CHCM1/CHCHD6 knockdown
Source text: as §3
Scramble and CHCM1/CHCHD6 knockdown cells were harvested and fixed by Ito and Karnovsky's fixative (2.5% glutaraldehyde, 2% paraformaldehyde in 0.1 M cacodylate buffer, pH 7.4) at 4° C. overnight (29). The next day cells were rinsed with 0.1 M cacodylate buffer for 5 times, 5 min each. After fixing with 1% osmium tetroxide in 0.1 M cacodylate buffer for 1 hr on ice, the samples were rinsed with double-distilled H2O for 3 times, 8 min each and later fixed with 1% Tannic acid for 1 hr. […]

[5] = system: RKO cells; assay: Transmission electron microscopy of mitochondrial cristae, RKO; format: cell-based, human; settings: CHCM1/CHCHD6 knockdown
Source text: as §3
Scramble and CHCM1/CHCHD6 knockdown cells were harvested and fixed by Ito and Karnovsky's fixative (2.5% glutaraldehyde, 2% paraformaldehyde in 0.1 M cacodylate buffer, pH 7.4) at 4° C. overnight (29). The next day cells were rinsed with 0.1 M cacodylate buffer for 5 times, 5 min each. After fixing with 1% osmium tetroxide in 0.1 M cacodylate buffer for 1 hr on ice, the samples were rinsed with double-distilled H2O for 3 times, 8 min each and later fixed with 1% Tannic acid for 1 hr. After rinsing with double-distilled H2O for additional 3 times 8 min each, samples were dehydrated and embedded into Poly/Bed® 812 according to the protocol of Poly/Bed® 812 BDMA Mini-kit (Polyscience, Inc., Warrington, Pa.). Poly/Bed®-embedded cells were cut into 80-90 nm ultrathin serial sections by a diamond knife-DIATOME 45 degree (Diatome U S, Hatfield, Pa.). Sections were supported on nickel grids/200 mesh (Electron Microscopy Sciences, Hatfield, Pa.) and post-stained in 4% uranyl acetate and 4% lead citrate. Finally sections were observed under Tecnai™ Transmission Electron Microscope (BioTwin lens) with Advantage Plus CCD Camera System at an 80.0-kV acceleration voltage.

[6] = system: melanoma cells; assay: MTT assay, cell growth in CHCM1 knockdown melanoma cells; format: cell-based, human; settings: knockdown vs scramble; melanoma cells (FIG. 24)
Source text: as §3, §4

[7] = system: RKO cells; assay: Oxygen consumption rate measurement; format: cell-based, human; settings: RKO knockdown vs scramble cells; p<0.05 (FIG. 11B)
Method: Intact cell oxygen consumption rate was measured by an Oxygraph system with DW1 Oxygen Electrode (Hansatech Instruments Ltd., Norfolk, U. K.) as described previously (30). Briefly, RKO cells with CHCM1/CHCHD6 knockdown or scramble knockdown were harvested by trypsinization and centrifugation at 2500 rpm. Approximately 1.5×10^6 cells were re-suspended in 300 μl growth medium for each sample and injected into the polarographic chamber for the intact cell-coupled oxygen consumption rate.

[8] = system: RKO cells; assay: Mitochondrial ATP synthesis assay (luciferase-based); format: cell-based, human; settings: RKO knockdown vs scramble cells; p<0.05 (FIG. 11A)
Method: Mitochondrial ATP synthesis assay was performed as reported previously (30). Briefly, CHCM1/CHCHD6 knockdown or scramble knockdown RKO cells were harvested, washed with glucose-free, serum free DMEM. Each sample with approximately 1.5×10^6 cells were re-suspended and incubated in 160 μl of buffer A (150 mM KCl, 25 mM Tris-HCl, 2 mM EDTA, 0.1% BSA, 10 mM potassium phosphate, pH 7.4, 0.1 mM MgCl2) with digitonin (40 μg/ml final concentration) for 1 min at room temperature. After a wash with buffer A, cells were centrifuged at 800×g at room temperature and pellets were re-suspended in 160 μl buffer A containing P^1, P^5-di (adenosine) pentaphosphate (0.15 mM). Subsequently, 10 μl of buffer B (0.5 M Tris-acetate, pH 7.75, 0.8 mM luciferin, 20 μg/ml luciferase), ADP (to 0.1 mM), malate and pyruvate (both to 1 mM) were added to the cell suspension. Oligomycin (1 μg/ml) was also added to one replicate of each sample prepared as above. Cells were transferred to a luminometer glass tubes and gently mixed with a vortex for 2 sec. Tubes were then placed in a luminometer (LUMAT LB 9507, Berthold Technologies, Germany) and light emission was recorded in the kinetic mode. The integration time for each reading was 1 sec. Interval between readings was 15 sec and a total recording time was 4 min. Finally, total cellular protein content of each sample was determined.

[9] = system: RKO cells stably expressing exogenous CHCM1/CHCHD6; assay: MTT assay, chemosensitivity of cells stably overexpressing CHCM1/CHCHD6; format: cell-based, human; settings: etoposide 30 μM for 48 hr; clones C3 and C4 vs vector (FIG. 6B)
Source text: For stable transfections, expression vector pcDNA3.1 carrying HA/S-tagged CHCM1/CHCHD6 was used. The same vector without CHCM1/CHCHD6 insert was used for control transfection. RKO human colon cancer cells were transfected with these vectors using Lipofectamine 2000 (Invitrogen, Carlsbad, Calif.) and G418-resisitant colonies selected after approximately 2 weeks. Several independent colonies were picked up and expanded into mass culture and screened for the expression of exogenous CHCM1/CHCHD6. Several vector-only transfected colonies were also isolated, pooled and expanded into mass culture. CHCM1/CHCHD6 expressing clones B4, C3 and C4 were selected for further studies.
as §4

[10] = system: CHCM1/CHCHD6 mRNA; assay: Northern blot of CHCM1/CHCHD6 mRNA after genotoxic drug treatment; format: cell-based, human
Method: as §2

[11] = system: MDA231 and SK-Mel-103 cells; assay: MTT assay, chemosensitivity of CHCM1/CHCHD6 knockdown cells; format: cell-based, human; settings: Adria 3 μM for MDA231, 1 μM for SK-Mel-103, 24 hr; knockdown vs scramble (FIG. 6A)
Source text: as §3, §4

[12] = RKO cells, respiratory chain inhibitors, 24 hr or antimycin A 1 μg/ml, rotenone 0.1 μg/ml for various time points (FIGS. 12A-B)
[13] = multiple human cancer cell lines, etoposide 30 μM, ADRIAMYCIN 1.0 μM, 24 hr (FIG. 4C)
[14] = various human breast cancer cell lines (FIG. 23)
[15] = RKO human colon cancer cells, ADRIAMYCIN 0.5 μM (FIG. 4B)

C=C(C)[C@H]1Cc2c(ccc3c2O[C@@H]2COc4cc(OC)c(OC)cc4[C@@H]2C3=O)O1 [rotenone]
CHCM1/CHCHD6 protein levels [1, 12]: did not appreciably affect

G4: lentiviral pLKO.1 CHCM1/CHCHD6-specific shRNA, SEQ ID NO: 3 (GAGCGTATTGAGAGGAAGAATCTCGAGATTCTTCCTCTCAATACGCTCT)
knockdown of endogenous CHCM1/CHCHD6 at mRNA and protein levels [2]: effectively knocked down | cell growth (MTT) [3]: reduces cell growth | Abnormal Mitochondria devoid or nearly devoid of cristae structures, Experiment 1 [4]: 58.3% | Abnormal Mitochondria devoid or nearly devoid of cristae structures, Experiment 1 [5]: 17.8% | cell growth (MTT) [6]: growth inhibition | oxygen consumption rate [7]: affects oxygen consumption rate | cellular ATP production [8]: affects cellular ATP production

G5: lentiviral pLKO.1 CHCM1/CHCHD6-specific shRNA, SEQ ID NO: 4 (CCTGAAGAAGGGACCAATCATCTCGAGATGATTGGTCCCTTCTTCAGGT)
knockdown of endogenous CHCM1/CHCHD6 at mRNA and protein levels [2]: effectively knocked down

G8: lentiviral pLKO.1 CHCM1/CHCHD6-specific shRNA, SEQ ID NO: 7 (GCTGAGATGTATAAACTGTCTCTCGAGAGACAGTTTATACATCTCAGCT)
knockdown of endogenous CHCM1/CHCHD6 at mRNA and protein levels [2]: effectively knocked down | cell growth (MTT) [3]: reduces cell growth | Abnormal Mitochondria devoid or nearly devoid of cristae structures, Experiment 1 [4]: 65.2% | Abnormal Mitochondria devoid or nearly devoid of cristae structures, Experiment 1 [5]: 55.6% | Abnormal Mitochondria devoid or nearly devoid of cristae structures, Experiment 2 [5]: 70.5% (74/105) | cell growth (MTT) [6]: growth inhibition | oxygen consumption rate [7]: affects oxygen consumption rate | cellular ATP production [8]: affects cellular ATP production

N.N.[Cl][Pt][Cl] [Cisplatin]
CHCM1 protein level ([1]; UACC-62 melanoma cells, 24 hrs (FIG. 22)): downregulates

COc1cc([C@@H]2c3cc4c(cc3[C@@H](O[C@@H]3O[C@@H]5CO[C@@H](C)O[C@H]5[C@H](O)[C@H]3O)[C@H]3COC(=O)[C@H]23)OCO4)cc(OC)c1O [etoposide]
etoposide-mediated chemosensitivity in cells overexpressing CHCM1/CHCHD6 (cell viability, MTT) [9]: reduced | CHCM1/CHCHD6 protein levels [1, 13]: down-regulated | CHCM1 protein level [1, 14]: down-regulate | CHCM1/CHCHD6 mRNA expression ([10]; multiple human cancer cell lines, etoposide 30 μM for 24 hr, Northern blot (FIG. 4A)): strongly down-regulated | drug-mediated chemosensitivity in CHCM1/CHCHD6 knockdown cells (cell viability, MTT) [11]: further increased

antimycin A
CHCM1/CHCHD6 protein levels [1, 12]: did not appreciably affect

COc1cccc2c1C(=O)c1c(O)c3c(c(O)c1C2=O)C[C@@](O)(C(=O)CO)C[C@@H]3O[C@H]1C[C@H](N)[C@H](O)[C@H](C)O1 [ADRIAMYCIN®, doxorubicin]
CHCM1/CHCHD6 protein levels [1, 13]: down-regulated | CHCM1 protein level [1, 14]: down-regulate | time by which CHCM1/CHCHD6 mRNA expression was reduced [10, 15]: ≤ 12 h | time post-treatment until which mRNA down-regulation was maintained [10, 15]: 60 h | drug-mediated chemosensitivity in CHCM1/CHCHD6 knockdown cells (cell viability, MTT) [11]: further increased

G6: lentiviral pLKO.1 CHCM1/CHCHD6-specific shRNA, SEQ ID NO: 5 (GCATGCTGCTATCCAGGATAACTCGAGTTATCCTGGATAGCAGCATGCT)
knockdown of endogenous CHCM1/CHCHD6 at mRNA and protein levels [2]: effectively knocked down

G7: lentiviral pLKO.1 CHCM1/CHCHD6-specific shRNA, SEQ ID NO: 6 (CTTTGGCCTTCAAGATGGCAACTCGAGTTGCCATCTTGAAGGCCAAAGT)
knockdown of endogenous CHCM1/CHCHD6 at mRNA and protein levels [2]: effectively knocked down

Source: patent publication US9945863B2, “Coiled coil helix cristae morphology 1 (CHCM1) tumor marker and cancer therapeutic target” (The Research Foundation of State University of New York, priority 2012, dated 2018)
